Results published in patent publication US20240109917A1 (ACTELION PHARMACEUTICALS LTD, priority 2020, published 2024).
pIC50: −log10 of the molar value. Like-named read-outs stand apart in the source and are kept apart here.

Tests used:
PDGFRβ = PDGFRβ (Rattus norvegicus (Rat), UniProt Q05030); assay: PDGFRβ Cellular Assay (PDGFRb P-Y751 HTRF in A10 cells stimulated with PDGF-BB); format: cell-based
Method in brief: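 Phospho-Y751 PDGFRβ was measured by HTRF in lysates of A10 rat cells. Cells received compound for 3 hours before PDGF-BB stimulation (100 ng/mL working stock).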

VEGFR2, unphosphorylated = VEGFR2, unphosphorylated (Homo sapiens (Human), UniProt P35968); assay: VEGFR ADP GLO Assay; format: biochemical
[1] = molecular target: Tb-labeled inactive PDGFRβ (Homo sapiens (Human), UniProt P09619); assay: PDGFRβ LanthaScreen Assay; format: binding; settings: read-out: PDGFR Lantha IC50
Tb-labeled inactive PDGFRβ, sequence (P09619 33-1106): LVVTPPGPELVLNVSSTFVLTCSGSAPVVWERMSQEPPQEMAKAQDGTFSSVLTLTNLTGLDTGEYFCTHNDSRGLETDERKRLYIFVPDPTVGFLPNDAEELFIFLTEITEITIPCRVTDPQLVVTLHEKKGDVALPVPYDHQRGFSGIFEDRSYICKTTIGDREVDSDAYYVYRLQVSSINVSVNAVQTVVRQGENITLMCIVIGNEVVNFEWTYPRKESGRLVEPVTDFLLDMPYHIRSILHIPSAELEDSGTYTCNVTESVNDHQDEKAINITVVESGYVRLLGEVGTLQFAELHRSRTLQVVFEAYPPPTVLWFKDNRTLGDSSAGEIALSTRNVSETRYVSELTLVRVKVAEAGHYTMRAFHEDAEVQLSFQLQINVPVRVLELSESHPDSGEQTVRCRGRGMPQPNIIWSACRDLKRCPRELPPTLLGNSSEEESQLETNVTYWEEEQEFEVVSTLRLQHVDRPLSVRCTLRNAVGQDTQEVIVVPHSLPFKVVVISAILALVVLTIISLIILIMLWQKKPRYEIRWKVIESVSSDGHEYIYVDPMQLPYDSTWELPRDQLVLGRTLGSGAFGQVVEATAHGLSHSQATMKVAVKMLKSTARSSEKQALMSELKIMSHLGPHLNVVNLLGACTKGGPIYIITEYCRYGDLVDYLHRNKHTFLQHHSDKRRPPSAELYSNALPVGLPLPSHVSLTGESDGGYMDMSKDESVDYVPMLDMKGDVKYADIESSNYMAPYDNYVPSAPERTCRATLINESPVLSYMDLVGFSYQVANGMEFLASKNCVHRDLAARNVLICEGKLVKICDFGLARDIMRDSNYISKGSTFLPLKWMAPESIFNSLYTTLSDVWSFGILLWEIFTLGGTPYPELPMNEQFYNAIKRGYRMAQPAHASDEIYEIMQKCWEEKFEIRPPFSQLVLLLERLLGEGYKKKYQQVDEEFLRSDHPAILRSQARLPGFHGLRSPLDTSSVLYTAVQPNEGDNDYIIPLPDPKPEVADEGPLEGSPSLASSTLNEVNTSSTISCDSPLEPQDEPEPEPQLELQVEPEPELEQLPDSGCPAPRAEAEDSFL

PDGFRβ, sequence (Q05030 32-1097): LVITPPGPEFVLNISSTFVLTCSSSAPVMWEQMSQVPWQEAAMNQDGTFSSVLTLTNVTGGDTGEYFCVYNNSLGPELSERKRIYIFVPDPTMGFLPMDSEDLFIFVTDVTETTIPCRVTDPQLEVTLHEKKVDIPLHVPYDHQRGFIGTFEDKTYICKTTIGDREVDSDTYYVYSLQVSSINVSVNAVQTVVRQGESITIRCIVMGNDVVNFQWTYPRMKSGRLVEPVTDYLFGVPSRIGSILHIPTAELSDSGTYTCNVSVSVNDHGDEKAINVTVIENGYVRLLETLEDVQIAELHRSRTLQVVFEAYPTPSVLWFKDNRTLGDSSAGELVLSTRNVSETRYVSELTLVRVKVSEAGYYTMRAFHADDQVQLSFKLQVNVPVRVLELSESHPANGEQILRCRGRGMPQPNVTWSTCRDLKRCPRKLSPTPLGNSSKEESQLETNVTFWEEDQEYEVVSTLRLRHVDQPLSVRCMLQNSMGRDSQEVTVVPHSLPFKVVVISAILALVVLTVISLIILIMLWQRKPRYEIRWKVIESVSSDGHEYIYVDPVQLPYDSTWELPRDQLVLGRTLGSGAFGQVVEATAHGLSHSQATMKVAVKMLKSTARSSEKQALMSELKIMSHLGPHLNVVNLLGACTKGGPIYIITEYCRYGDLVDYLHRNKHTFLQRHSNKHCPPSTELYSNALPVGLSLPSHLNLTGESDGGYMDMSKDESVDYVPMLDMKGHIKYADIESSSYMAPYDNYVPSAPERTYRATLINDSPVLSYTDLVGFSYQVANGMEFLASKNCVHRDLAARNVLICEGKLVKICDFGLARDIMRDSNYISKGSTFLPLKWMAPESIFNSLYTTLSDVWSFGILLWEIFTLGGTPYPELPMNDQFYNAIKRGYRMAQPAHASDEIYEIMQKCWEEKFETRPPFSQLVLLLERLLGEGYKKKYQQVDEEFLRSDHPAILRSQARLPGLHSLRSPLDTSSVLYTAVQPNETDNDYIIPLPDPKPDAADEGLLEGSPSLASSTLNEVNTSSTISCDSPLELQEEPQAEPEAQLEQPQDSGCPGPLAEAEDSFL
VEGFR2, unphosphorylated, sequence (P35968 20-1356): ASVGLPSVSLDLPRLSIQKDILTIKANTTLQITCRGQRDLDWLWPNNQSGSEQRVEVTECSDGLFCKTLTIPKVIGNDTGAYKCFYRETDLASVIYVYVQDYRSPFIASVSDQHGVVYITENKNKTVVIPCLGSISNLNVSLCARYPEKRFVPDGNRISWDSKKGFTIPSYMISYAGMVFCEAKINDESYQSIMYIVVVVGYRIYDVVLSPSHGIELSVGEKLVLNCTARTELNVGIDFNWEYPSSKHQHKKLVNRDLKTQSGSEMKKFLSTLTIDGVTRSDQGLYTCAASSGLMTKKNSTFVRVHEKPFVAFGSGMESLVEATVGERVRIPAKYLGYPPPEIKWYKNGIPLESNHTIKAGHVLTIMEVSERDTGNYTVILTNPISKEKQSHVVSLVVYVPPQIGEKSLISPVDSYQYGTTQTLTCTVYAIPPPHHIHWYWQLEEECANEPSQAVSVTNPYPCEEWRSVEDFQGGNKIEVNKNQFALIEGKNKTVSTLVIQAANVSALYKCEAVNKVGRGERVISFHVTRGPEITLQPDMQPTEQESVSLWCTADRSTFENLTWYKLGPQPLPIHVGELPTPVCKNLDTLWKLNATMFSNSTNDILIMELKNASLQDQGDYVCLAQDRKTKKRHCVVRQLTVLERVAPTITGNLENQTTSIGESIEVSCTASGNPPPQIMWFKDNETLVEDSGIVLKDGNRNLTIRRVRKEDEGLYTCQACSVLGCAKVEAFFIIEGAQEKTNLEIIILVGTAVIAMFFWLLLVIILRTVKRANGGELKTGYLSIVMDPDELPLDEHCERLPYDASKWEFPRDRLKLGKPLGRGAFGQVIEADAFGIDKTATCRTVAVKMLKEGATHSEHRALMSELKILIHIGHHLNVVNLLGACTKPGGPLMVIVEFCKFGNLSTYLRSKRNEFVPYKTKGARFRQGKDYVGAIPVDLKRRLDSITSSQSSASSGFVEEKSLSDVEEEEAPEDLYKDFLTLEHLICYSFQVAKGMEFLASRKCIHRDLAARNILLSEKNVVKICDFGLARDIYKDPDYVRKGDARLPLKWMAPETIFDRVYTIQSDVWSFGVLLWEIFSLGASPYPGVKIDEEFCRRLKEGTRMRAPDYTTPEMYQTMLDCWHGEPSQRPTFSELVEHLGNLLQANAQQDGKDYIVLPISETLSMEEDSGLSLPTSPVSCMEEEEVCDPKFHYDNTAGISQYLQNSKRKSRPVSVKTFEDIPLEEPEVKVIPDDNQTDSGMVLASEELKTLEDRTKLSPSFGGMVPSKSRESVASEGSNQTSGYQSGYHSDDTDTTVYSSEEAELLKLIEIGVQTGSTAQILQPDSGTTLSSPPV

Row | SMILES | pIC50 (PDGFRβ; PDGFR Cellular IC50) | pIC50 (VEGFR2, unphosphorylated) | pIC50 [1] | pIC50 (PDGFRβ; read-out: PDGFR Cellular IC50)
1 | Cc1ncc(NC(=O)CN2CCOC[C@@H]2C)cc1NC(=O)c1cnn2cc(-c3cnn(C)c3)sc12 [Example 74, (S)-2-(1-methyl-1H-pyrazol-4-yl)-N-(2-methyl-5-(2-(3-methylmorpholino)acetamido)pyridin-3-yl)pyrazolo[5,1-b]thiazole-7-carboxamide] | 7.38 | < 5.12 | 7.62 | 
2 | Cc1ncc(NC(=O)CN2CCO[C@@H](C)C2)cc1NC(=O)c1cnn2cc(-c3cnn(C)c3)sc12 [Example 64, (S)-2-(1-methyl-1H-pyrazol-4-yl)-N-(2-methyl-5-(2-(2-methylmorpholino)acetamido)pyridin-3-yl)pyrazolo[5,1-b]thiazole-7-carboxamide] |  | < 5.12 | 8.20 | 8.07
3 | Cc1ncc(NC(=O)CN2[C@H](C)COC[C@H]2C)cc1NC(=O)c1cnn2cc(-c3cnn(C)c3)sc12 [Example 51, N-(5-(2-((3R,5R)-3,5-dimethylmorpholino)acetamido)-2-methylpyridin-3-yl)-2-(1-methyl-1H-pyrazol-4-yl)pyrazolo[5,1-b]thiazole-7-carboxamide] |  | < 5.12 | 8.32 | 8.17
4 | Cc1ncc(NC(=O)CN2CCOC(C)(C)C2)cc1NC(=O)c1cnn2cc(-c3cnn(C)c3)sc12 [Example 67, N-(5-(2-(2,2-dimethylmorpholino)acetamido)-2-methylpyridin-3-yl)-2-(1-methyl-1H-pyrazol-4-yl)pyrazolo[5,1-b]thiazole-7-carboxamide] |  | < 5.12 | 8.24 | 8.08
5 | Cc1ncc(NC(=O)CN2CC3CC(C2)O3)cc1NC(=O)c1cnn2cc(-c3cnn(C)c3)sc12 [Example 45, N-(5-(2-(6-oxa-3-azabicyclo[3.1.1]heptan-3-yl)acetamido)-2-methylpyridin-3-yl)-2-(1-methyl-1H-pyrazol-4-yl)pyrazolo[5,1-b]thiazole-7-carboxamide] |  | < 5.12 | 7.51 | 7.12
6 | COCCn1cc(-c2cn3ncc(C(=O)Nc4cc(NC(=O)CCN5C[C@@H]6CC[C@H]5C6)cnc4C)c3s2)cn1 [Example 92, N-(5-(3-((1S,4R)-2-azabicyclo[2.2.1]heptan-2-yl)propanamido)-2-methylpyridin-3-yl)-2-(1-(2-methoxyethyl)-1H-pyrazol-4-yl)pyrazolo[5,1-b]thiazole-7-carboxamide] |  | < 5.12 | 8.14 | 6.91
7 | Cc1ncc(NC(=O)CN2Cc3ncsc3C2)cc1NC(=O)c1cnn2cc(-c3cnn(C)c3)sc12 [Example 76, N-(5-(2-(4H-pyrrolo[3,4-d]thiazol-5 (6H)-yl)acetamido)-2-methylpyridin-3-yl)-2-(1-methyl-1H-pyrazol-4-yl)pyrazolo[5,1-b]thiazole-7-carboxamide] |  | < 5.12 | 8.05 | 7.43
8 | COCCn1cc(-c2cn3ncc(C(=O)Nc4cc(NC(=O)CCN5CC(C)(C)C5)cnc4C)c3s2)cn1 [Example 93, N-(5-(3-(3,3-dimethylazetidin-1-yl)propanamido)-2-methylpyridin-3-yl)-2-(1-(2-methoxyethyl)-1H-pyrazol-4-yl)pyrazolo[5,1-b]thiazole-7-carboxamide] |  | < 5.12 | 7.54 | 7.18
9 | Cc1ncc(NC(=O)CCN2CCCC2(C)C)cc1NC(=O)c1cnn2cc(-c3cnn(CCO)c3)sc12 [Example 88, N-(5-(3-(2,2-dimethylpyrrolidin-1-yl)propanamido)-2-methylpyridin-3-yl)-2-(1-(2-hydroxyethyl)-1H-pyrazol-4-yl)pyrazolo[5,1-b]thiazole-7-carboxamide] |  | < 5.12 | 8.38 | 6.85
10 | COCCn1cc(-c2cn3ncc(C(=O)Nc4cc(NC(=O)C5(CN6CCCC6(C)C)CC5)cnc4C)c3s2)cn1 [Example 487, N-(5-(1-((2,2-dimethylpyrrolidin-1-yl)methyl)cyclopropane-carboxamido)-2-methylpyridin-3-yl)-2-(1-(2-methoxyethyl)-1H-pyrazol-4-yl)pyrazolo[5,1-b]thiazole-7-carboxamide] |  | < 5.12 | 6.71 | 7.37
11 | COCC1CCCN1CC(=O)Nc1cnc(C)c(NC(=O)c2cnn3cc(-c4cnn(C)c4)sc23)c1 (stereo not drawn) [Example 79, N-(5-(2-(2-(methoxymethyl)pyrrolidin-1-yl)acetamido)-2-methylpyridin-3-yl)-2-(1-methyl-1H-pyrazol-4-yl)pyrazolo[5,1-b]thiazole-7-carboxamide] |  | < 5.12 | 7.96 | 7.90
12 | Cc1ncc(NC(=O)CCN2CCCC2(C)C)cc1NC(=O)c1cnn2cc(-c3cnn(C)c3)sc12 [Example 42, N-(5-(3-(2,2-dimethylpyrrolidin-1-yl)propanamido)-2-methyl-pyridin-3-yl)-2-(1-methyl-1H-pyrazol-4-yl)pyrazolo[5,1-b]thiazole-7-carboxamide] |  | < 5.12 | 8.42 | 8.23
13 | Cc1ncc(NC(=O)CN2CCOCC23CC3)cc1NC(=O)c1cnn2cc(-c3cnn(C)c3)sc12 [Example 47, N-(5-(2-(7-oxa-4-azaspiro[2.5]octan-4-yl)acetamido)-2-methylpyridin-3-yl)-2-(1-methyl-1H-pyrazol-4-yl)pyrazolo[5,1-b]thiazole-7-carboxamide] |  | < 5.12 | 7.78 | 7.43
14 | Cc1ncc(NC(=O)CN2CCC[C@@H]2C)cc1NC(=O)c1cnn2cc(-c3cnn(CCO)c3)sc12 [Example 84, (S)-2-(1-(2-hydroxyethyl)-1H-pyrazol-4-yl)-N-(2-methyl-5-(2-(2-methylpyrrolidin-1-yl)acetamido)pyridin-3-yl)pyrazolo[5,1-b]thiazole-7-carboxamide] |  | < 5.12 | 7.96 | 7.40
15 | Cc1ncc(C(=O)NCCN2CCCC23CC3)cc1NC(=O)c1cnn2cc(-c3cnn(C)c3)sc12 [Example 2, N-(5-((2-(4-azaspiro[2.4]heptan-4-yl)ethyl)carbamoyl)-2-methylpyridin-3-yl)-2-(1-methyl-1H-pyrazol-4-yl)pyrazolo[5,1-b]thiazole-7-carboxamide] |  | < 5.12 | 7.94 | 7.52
16 | CC[C@@H]1COCCN1CC(=O)Nc1cnc(C)c(NC(=O)c2cnn3cc(-c4cnn(C)c4)sc23)c1 [Example 69, (R)—N-(5-(2-(3-ethylmorpholino)acetamido)-2-methylpyridin-3-yl)-2-(1-methyl-1H-pyrazol-4-yl)pyrazolo[5,1-b]thiazole-7-carboxamide] |  | < 5.12 | 8.33 | 7.92
17 | Cc1ncc(NC(=O)CN2CCOCC23CCC3)cc1NC(=O)c1cnn2cc(-c3cnn(C)c3)sc12 [Example 78, N-(5-(2-(8-oxa-5-azaspiro[3.5]nonan-5-yl)acetamido)-2-methylpyridin-3-yl)-2-(1-methyl-1H-pyrazol-4-yl)pyrazolo[5,1-b]thiazole-7-carboxamide] |  | < 5.12 | 8.24 | 7.92
18 | Cc1ncc(C(=O)NCCN2CCCC2(C)C)cc1NC(=O)c1cnn2cc(-c3ccnc(N4CCOCC4)c3)sc12 [Example 483, N-(5-((2-(2,2-dimethylpyrrolidin-1-yl)ethyl)carbamoyl)-2-methylpyridin-3-yl)-2-(2-morpholinopyridin-4-yl)pyrazolo[5,1-b]thiazole-7-carboxamide] | 7.75 | < 5.12 | 8.68 | 
19 | COCCn1cc(-c2cn3ncc(C(=O)Nc4cc(NC(=O)C[C@H]5CCCN5C(C)C)cnc4C)c3s2)cn1 [Example 485, (R)—N-(5-(2-(1-isopropylpyrrolidin-2-yl)acetamido)-2-methylpyridin-3-yl)-2-(1-(2-methoxyethyl)-1H-pyrazol-4-yl)pyrazolo[5,1-b]thiazole-7-carboxamide] |  | < 5.12 | 7.79 | 7.46
20 | Cc1ncc(NC(=O)CN2CCO[C@H](C)C2)cc1NC(=O)c1cnn2cc(-c3cnn(C)c3)sc12 [Example 54, (R)-2-(1-methyl-1H-pyrazol-4-yl)-N-(2-methyl-5-(2-(2-methylmorpholino)acetamido)pyridin-3-yl)pyrazolo[5,1-b]thiazole-7-carboxamide] |  | < 5.12 | 7.89 | 7.94
21 | Cc1ncc(NC(=O)CN2CCc3c(cnn3C)C2)cc1NC(=O)c1cnn2cc(-c3cnn(C)c3)sc12 [Example 57, 2-(1-methyl-1H-pyrazol-4-yl)-N-(2-methyl-5-(2-(1-methyl-6,7-dihydro-1H-pyrazolo[4,3-c]pyridin-5 (4H)-yl)acetamido)pyridin-3-yl)pyrazolo[5,1-b]thiazole-7-carboxamide] |  | < 5.12 | 7.97 | 6.91
